Measured values reported in PMC5478727, “A Novel Small Molecule GDNF Receptor RET Agonist, BT13, Promotes Neurite Growth from Sensory Neurons in Vitro and Attenuates Experimental Neuropathy in the Rat” (Frontiers in Pharmacology, 2017).

Assays:
[1] = target: T1, Protein Serine/Threonine Phosphatase, PP2A (Homo sapiens, UniProt P67775); experiment: CEREP Protein Serine/Threonine Phosphatase, PP2A; assay type: biochemical
T1 construct: purchased CEREP (contract assay) 3953

[2] = target: COMT (catechol-O-methyl transferase); experiment: CEREP COMT (catechol-O-methyl transferase); assay type: biochemical; details: reference compound; Cat. No. 0457
[3] = test system: Akt and Erk phosphorylation in MG87TrkA; experiment: Erk1/2 and Akt phosphorylation assay in MG87TrkA cells; assay type: cell-based, murine; details: BT13 10–100 μM, NGF positive control
Protocol: (§1) MG87RET, MG87TrkA, or MG87TrkB were plated on 35 mm tissue culture dishes 1–2 days before the experiment to achieve 90–95% of confluency of the cells at the day of stimulation with tested substances. If necessary, cells were transfected with 4 μg/well of GFRα1-, GFRα3-, or green fluorescent protein (GFP)-expressing plasmid using Lipofectamine 2000 (Invitrogen) for DNA delivery as described by manufacturer. Before the experiment cells were starved in serum-free DMEM containing 15 mM HEPES, pH 7.2 and 1% DMSO for 4 h and stimulated with BT13 or neurotrophic factors. Then cells were washed once with ice-cold PBS containing 1 mM Na3VO4 and 1 mM NaF and lysed on ice in 1 ml per well of RIPA-modified buffer (50 mM Tris-HCl, pH 7.4, 150 mM NaCl, 1 mM EDTA, 1% NP-40, 1% TX-100, 10% glycerol, EDTA-free protease inhibitor cocktail (Roche), 1 mM Na3VO4, 2.5 mg/ml of sodium deoxycholate, 1 mM NaF). Plates were incubated at +4°C on the horizontal shaker for 30 min with vigorous shaking. Afterwards, 80–100 μl aliquot was taken from each well to prepare whole cell lysates. This aliquot was mixed with equal volume of 2x Laemmli loading buffer (4% SDS, 20% glycerol, 10% 2-mercaptoethanol, 0.004% bromphenol blue, 0.125 M Tris HCl, pH 6.8) and boiled for 10 min at 100°C. Remaining cell lysates were used for immunoprecipitation of RET or Trk receptors. […]

[4] = test system: adult rat lumbar DRG sensory neurons; experiment: Neurite outgrowth from cultured DRG neurons; assay type: cell-based; details: NGF 10 ng/ml
Protocol: Cultured lumbar DRG (L3–L5) neurons were prepared using a published method (O'Mullane et al., [2013]). After plating onto poly-L-ornithine (5 μg/ml)/laminin (5 μg/ml) coated coverslips for 1 h, DRG neurons were cultured for 24–30 h in fresh Neurobasal A/B27. GFLs, BT13, NGF, and vehicle control were added at the start of this period for a 24–30 h treatment, except when preceded by pre-treatment (1 h) with inhibitors (50 μM LY294002; 2 μM SU6656, […]; Biomol Research Laboratories, Plymouth Meeting, PA, USA). DRG neurons were then fixed (4% paraformaldehyde) and processed for immunocytochemistry with 1:200 Mouse anti-β III tubulin/AlexaFluor 594 (Sigma-Aldrich Cat# T8660 RRID:AB_477590) and 1:5,000 rabbit anti-calcitonin gene-related peptide/AlexaFluor 488 (Sigma-Aldrich Cat# C8198 RRID:AB_259091) and DAPI for nuclear staining (0.5 μg/ml, Molecular Probes). Image analysis of multichannel 12 bit Zeiss .ZVI or .TIF files (captured with a Zeiss Imager.M1/MRm camera/Zen software; Carl Zeiss Australia, North Ryde, NSW, Australia) was then performed by a researcher blinded to the experimental condition. Neurite initiation was measured by a single parameter (proportion of neurons with neurites longer than the soma diameter). Neurite elongation was measured by batch processing (HCA-Vision software; CSIRO Mathematical and Information Sciences, North Ryde, NSW, Australia) to obtain four parameters—Root number: number of primary neurites; Maximum length: length of longest neurite; Branch points: number of neurite branch points; and Total length: sum of neurite lengths (Kalous and Keast, [2010]; Kalous et al., [2012]). The number of neurons of each immunocytochemical class counted on each coverslip (technical replicates) was 50 for neurite initiation and 20 for neurite elongation. A minimum of three cultures from different rats (biological replicates) were analyzed for each treatment group.

TrkA = TrkA phosphorylation assay in MG87TrkA cells; assay type: cell-based; details: BT13 10–100 μM, NGF positive control
Protocol: as §1

TrkB = target: T2, TrkB (Rattus norvegicus, UniProt Q63604); experiment: TrkB phosphorylation assay in MG87TrkB cells; assay type: cell-based; details: BT13 10–100 μM, BDNF positive control
T2 construct: expressed in transfected cells; host or cells: MG87 murine fibroblasts (MG87TrkB)
Protocol: as §1

[5] = test system: Akt and Erk phosphorylation in MG87TrkB; experiment: Erk1/2 and Akt phosphorylation assay in MG87TrkB cells; assay type: cell-based, murine; details: BT13 10–100 μM, BDNF positive control
Protocol: as §1

[6] = CGRP-positive neurons, vs control, BT13 100 ng/ml

T1 sequence (P67775 whole entry): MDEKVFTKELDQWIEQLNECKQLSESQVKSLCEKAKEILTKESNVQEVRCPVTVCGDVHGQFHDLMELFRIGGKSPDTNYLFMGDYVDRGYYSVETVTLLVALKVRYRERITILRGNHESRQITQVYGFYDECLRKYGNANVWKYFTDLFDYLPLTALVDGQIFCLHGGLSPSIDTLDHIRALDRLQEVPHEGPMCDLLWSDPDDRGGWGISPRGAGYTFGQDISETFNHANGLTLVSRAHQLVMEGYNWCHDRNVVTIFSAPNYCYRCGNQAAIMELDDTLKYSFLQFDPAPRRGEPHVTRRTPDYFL
T2 sequence (Q63604 32-821): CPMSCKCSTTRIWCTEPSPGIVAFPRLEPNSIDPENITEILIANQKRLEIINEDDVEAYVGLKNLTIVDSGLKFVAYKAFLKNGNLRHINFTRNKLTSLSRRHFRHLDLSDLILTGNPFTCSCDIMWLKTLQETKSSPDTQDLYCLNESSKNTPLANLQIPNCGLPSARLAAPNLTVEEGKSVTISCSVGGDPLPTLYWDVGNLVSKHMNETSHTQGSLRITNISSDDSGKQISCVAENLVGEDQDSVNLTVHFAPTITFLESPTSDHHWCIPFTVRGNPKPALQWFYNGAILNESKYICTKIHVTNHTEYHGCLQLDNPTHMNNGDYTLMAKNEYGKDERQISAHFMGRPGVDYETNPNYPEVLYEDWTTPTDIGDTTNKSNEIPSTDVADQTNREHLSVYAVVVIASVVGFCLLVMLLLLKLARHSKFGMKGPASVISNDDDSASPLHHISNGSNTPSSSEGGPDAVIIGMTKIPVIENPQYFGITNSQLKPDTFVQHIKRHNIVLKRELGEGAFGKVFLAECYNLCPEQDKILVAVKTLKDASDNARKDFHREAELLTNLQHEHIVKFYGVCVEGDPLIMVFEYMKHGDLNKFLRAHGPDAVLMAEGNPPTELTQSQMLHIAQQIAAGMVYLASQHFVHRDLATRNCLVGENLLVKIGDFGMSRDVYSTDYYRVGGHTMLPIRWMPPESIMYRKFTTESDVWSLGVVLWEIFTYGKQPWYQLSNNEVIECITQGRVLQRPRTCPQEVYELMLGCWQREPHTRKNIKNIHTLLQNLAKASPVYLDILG

In the case of `COC[C@@H]([C@H](O)[C@H](O)C(=O)NCC[C@H](C)c1nc(/C=C/C[C@@H]2O[C@]3(C[C@@H](O)[C@@H]2C)O[C@H]([C@H](C[C@H](O)[C@H](C)[C@H](O)[C@H](C)/C=C(C)/C(C)=C/C=C/C(C)=C\C#N)OC)[C@H](OP(=O)(O)O)C3(C)C)co1)N(C)C` [Calyculin A, reference compound], the IC50 [1] is reported as 0.49 nM.

`O=C(c1cc(O)c(O)c([N+](=O)[O-])c1)c1ccccc1F` [Ro 41-0960, reference compound] gave an IC50 [2] of 28 nM.

In the case of nerve growth factor [NGF], the “Akt and Erk phosphorylation” value [3] is reported as “promoted Akt and Erk phosphorylation”, the “neurite initiation or extension” value ([4]; CGRP-negative neurons, ARTN 30 ng/ml, BT13 100 ng/ml) is reported as “no effect” and the neurite initiation ([4]; CGRP-positive neurons, ARTN 30 ng/ml, BT13 100 ng/ml, overnight) is reported as “significantly increased”. For the same molecule, the “neurite elongation, root number, mean difference” value ([4]; CGRP-positive neurons, vs control) was 3 ± 1, the “neurite elongation, branch points, mean difference” value [4, 6] was 48 ± 3 and the “neurite elongation, maximum length, mean difference” value [4, 6] was 99 ± 8 μm. The “neurite elongation, total length, mean difference” value [4, 6] was 1,421 ± 108 μm, the “proportion of DRG neurons that expressed CGRP in culture” value ([4]; ARTN 30 ng/ml, BT13 100 ng/ml) was “did not alter” and the “TrkA phosphorylation, Western blotting” value (TrkA) was “responded”.

B1: brain-derived neurotrophic factor (protein, UniProt P23560 19-247, looked up)
Neurotrophic factor BDNF …: APMKEANIRGQGGLAYPGVRTHGTLESVNGPKAGSRGLTSLADTFEHVIEELLDEDQKVRPNEENNKDADLYTSRVMLSSQVPLEPPLLFLLEEYKNYLDAANMSMRVRRHSDPARRGELSVCDSISEWVTAADKKTAVDMSGGTVTVLEKVPVSKGQLKQYFYETKCNPMGYTKEGCRGIDKRHWNSQCRTTQSYVRALTMDSKKRIGWRFIRIDTSCVCTLTIKRGR
notes: neurotrophin, natural ligand of TrkB
For B1, the “TrkB phosphorylation, Western blotting” value (TrkB) was “responded” and the “Akt and Erk phosphorylation” value [5] was “promoted Akt and Erk phosphorylation”.
